Values quoted from earlier work, collected in patent US20040009220A1, “Rate-controlled beta blockers and process for forming same” (priority 2001, published 2004).

What was measured:
[1] = in man

Row | Compound | solubility in water | plasma half life [1]
1 | COCCc1ccc(OCC(O)CNC(C)C)cc1 (centres unmarked) [metoprolol succinate] | freely soluble in water | –
2 | COCCc1ccc(OCC(O)CNC(C)C)cc1 (centres unmarked) [Metroprolol] | – | three to seven
